# Results reported in the kinase profiling compilation of Christmann-Franck et al. (2016).
# Experiments:
# Experiment in all cases: KINOMEscan competition binding
# Conditions in all cases: compound 10.0 µM
# [1] = tested on: ABL1 (human), P00519 [M351T]
# ACVR2A (human) = ACVR2A (human) (UniProt P27037)
# CDC2L2 (human) = CDC2L2 (human) (UniProt Q9UQ88)
# CDK16 (human) = CDK16 (human) (UniProt Q00536)
# CHEK2 (human) = CHEK2 (human) (UniProt O96017)
# CIT (human) = CIT (human) (UniProt O14578)
# CRK2 (P.falciparum) = CRK2 (P.falciparum) (UniProt P61075)
# DDR1 (human) = DDR1 (human) (UniProt Q08345)
# DYRK2 (human) = DYRK2 (human) (UniProt Q92630)
# EPHA6 (human) = EPHA6 (human) (UniProt Q9UF33)
# ERBB2 (human) = ERBB2 (human) (UniProt P04626)
# GRK4 (human) = GRK4 (human) (UniProt P32298)
# HIPK3 (human) = HIPK3 (human) (UniProt Q9H422)
# [2] = molecular target: JAK2 JH1 catalytic (human) (UniProt O60674)
# KDR (human) = KDR (human) (UniProt P35968)
# [3] = tested on: KIT (human), P10721 [D816V]
# LYN (human) = LYN (human) (UniProt P07948)
# MAP3K15 (human) = MAP3K15 (human) (UniProt Q6ZN16)
# MAP4K5 (human) = MAP4K5 (human) (UniProt Q9Y4K4)
# MAPK3 (human) = MAPK3 (human) (UniProt P27361)
# MYLK (human) = MYLK (human) (UniProt Q15746)
# MYLK2 (human) = MYLK2 (human) (UniProt Q9H1R3)
# MYLK3 (human) = MYLK3 (human) (UniProt Q32MK0)
# MYLK4 (human) = MYLK4 (human) (UniProt Q86YV6)
# NEK6 (human) = NEK6 (human) (UniProt Q9HC98)
# NLK (human) = NLK (human) (UniProt Q9UBE8)
# [4] = tested on: PIK3CA (human), P42336 [C420R]
# [5] = tested on: PIK3CA (human), P42336 [H1047L]
# PIM2 (human) = PIM2 (human) (UniProt Q9P1W9)
# PIP4K2B (human) = PIP4K2B (human) (UniProt P78356)
# RET (human) = RET (human) (UniProt P07949)
# [6] = tested on: RET (human), P07949 [M918T]
# RPS6KA6 KD1 (human) = RPS6KA6 KD1 (human) (UniProt Q9UK32)
# SBK1 (human) = SBK1 (human) (UniProt Q52WX2)
# STK10 (human) = STK10 (human) (UniProt O94804)
# STK32A (human) = STK32A (human) (UniProt Q8WU08)
# STK4 (human) = STK4 (human) (UniProt Q13043)
# TRPM6 (human) = TRPM6 (human) (UniProt Q9BX84)
# TTK (human) = TTK (human) (UniProt P33981)
# ULK1 (human) = ULK1 (human) (UniProt O75385)
# YES1 (human) = YES1 (human) (UniProt P07947)
# STK10 (human), sequence (O94804 whole entry, looked up): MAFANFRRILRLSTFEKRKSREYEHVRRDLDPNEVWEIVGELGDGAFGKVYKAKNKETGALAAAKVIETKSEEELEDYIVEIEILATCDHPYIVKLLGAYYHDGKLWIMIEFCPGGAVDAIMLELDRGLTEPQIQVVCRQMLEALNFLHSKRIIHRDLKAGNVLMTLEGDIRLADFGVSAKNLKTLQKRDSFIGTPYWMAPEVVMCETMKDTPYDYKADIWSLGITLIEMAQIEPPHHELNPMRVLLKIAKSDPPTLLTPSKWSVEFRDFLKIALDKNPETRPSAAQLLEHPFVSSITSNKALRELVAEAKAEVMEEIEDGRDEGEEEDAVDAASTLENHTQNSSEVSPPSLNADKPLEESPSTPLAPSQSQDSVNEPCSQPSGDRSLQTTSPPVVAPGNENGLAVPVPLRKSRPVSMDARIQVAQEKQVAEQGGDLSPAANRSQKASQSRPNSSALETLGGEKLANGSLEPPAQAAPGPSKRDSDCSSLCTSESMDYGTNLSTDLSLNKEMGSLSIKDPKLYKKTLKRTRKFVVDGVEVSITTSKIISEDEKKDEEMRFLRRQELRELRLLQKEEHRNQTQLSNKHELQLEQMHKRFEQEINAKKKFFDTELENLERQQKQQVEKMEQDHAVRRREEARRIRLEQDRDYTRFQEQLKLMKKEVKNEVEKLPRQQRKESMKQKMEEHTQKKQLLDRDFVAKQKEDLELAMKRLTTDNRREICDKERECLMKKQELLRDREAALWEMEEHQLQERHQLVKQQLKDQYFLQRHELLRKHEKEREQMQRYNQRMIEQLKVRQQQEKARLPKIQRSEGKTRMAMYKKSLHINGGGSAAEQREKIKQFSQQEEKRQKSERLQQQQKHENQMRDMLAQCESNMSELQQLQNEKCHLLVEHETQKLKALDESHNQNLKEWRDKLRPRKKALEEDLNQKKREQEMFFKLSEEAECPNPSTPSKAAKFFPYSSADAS
# KDR (human), sequence (P35968 whole entry, looked up): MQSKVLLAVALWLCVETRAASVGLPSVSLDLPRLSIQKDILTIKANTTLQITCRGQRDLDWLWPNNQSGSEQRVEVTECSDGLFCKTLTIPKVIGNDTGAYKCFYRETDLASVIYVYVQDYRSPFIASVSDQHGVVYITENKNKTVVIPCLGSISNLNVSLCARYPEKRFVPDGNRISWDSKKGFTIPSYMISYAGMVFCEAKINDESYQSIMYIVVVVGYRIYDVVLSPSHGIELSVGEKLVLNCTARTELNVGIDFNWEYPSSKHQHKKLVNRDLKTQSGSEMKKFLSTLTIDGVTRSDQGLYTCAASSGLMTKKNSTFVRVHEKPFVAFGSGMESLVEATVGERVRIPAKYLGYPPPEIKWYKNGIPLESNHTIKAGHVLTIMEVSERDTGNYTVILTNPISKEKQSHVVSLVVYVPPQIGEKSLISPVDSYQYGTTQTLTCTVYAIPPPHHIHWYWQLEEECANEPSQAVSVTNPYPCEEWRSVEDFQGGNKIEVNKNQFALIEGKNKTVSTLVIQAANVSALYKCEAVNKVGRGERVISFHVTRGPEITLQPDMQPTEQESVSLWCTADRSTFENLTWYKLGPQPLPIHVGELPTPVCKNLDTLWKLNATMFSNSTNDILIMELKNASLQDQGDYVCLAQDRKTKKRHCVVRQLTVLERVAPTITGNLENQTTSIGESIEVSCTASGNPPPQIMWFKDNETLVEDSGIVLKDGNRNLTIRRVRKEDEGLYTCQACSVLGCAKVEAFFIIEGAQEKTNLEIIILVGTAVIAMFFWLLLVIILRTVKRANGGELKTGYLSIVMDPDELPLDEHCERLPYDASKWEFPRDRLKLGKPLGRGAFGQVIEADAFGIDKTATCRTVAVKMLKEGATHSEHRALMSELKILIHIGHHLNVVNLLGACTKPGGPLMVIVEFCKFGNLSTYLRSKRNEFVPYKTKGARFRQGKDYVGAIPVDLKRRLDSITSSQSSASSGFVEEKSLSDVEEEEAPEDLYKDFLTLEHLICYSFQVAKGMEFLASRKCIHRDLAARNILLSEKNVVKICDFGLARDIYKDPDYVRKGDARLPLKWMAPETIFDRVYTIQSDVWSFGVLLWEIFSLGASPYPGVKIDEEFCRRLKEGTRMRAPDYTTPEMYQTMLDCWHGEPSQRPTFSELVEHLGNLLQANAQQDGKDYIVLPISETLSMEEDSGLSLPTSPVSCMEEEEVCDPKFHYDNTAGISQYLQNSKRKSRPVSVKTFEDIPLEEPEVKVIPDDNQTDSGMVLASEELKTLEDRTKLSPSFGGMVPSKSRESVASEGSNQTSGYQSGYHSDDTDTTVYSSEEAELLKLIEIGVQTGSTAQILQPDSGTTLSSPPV
# TTK (human), sequence (P33981 whole entry, looked up): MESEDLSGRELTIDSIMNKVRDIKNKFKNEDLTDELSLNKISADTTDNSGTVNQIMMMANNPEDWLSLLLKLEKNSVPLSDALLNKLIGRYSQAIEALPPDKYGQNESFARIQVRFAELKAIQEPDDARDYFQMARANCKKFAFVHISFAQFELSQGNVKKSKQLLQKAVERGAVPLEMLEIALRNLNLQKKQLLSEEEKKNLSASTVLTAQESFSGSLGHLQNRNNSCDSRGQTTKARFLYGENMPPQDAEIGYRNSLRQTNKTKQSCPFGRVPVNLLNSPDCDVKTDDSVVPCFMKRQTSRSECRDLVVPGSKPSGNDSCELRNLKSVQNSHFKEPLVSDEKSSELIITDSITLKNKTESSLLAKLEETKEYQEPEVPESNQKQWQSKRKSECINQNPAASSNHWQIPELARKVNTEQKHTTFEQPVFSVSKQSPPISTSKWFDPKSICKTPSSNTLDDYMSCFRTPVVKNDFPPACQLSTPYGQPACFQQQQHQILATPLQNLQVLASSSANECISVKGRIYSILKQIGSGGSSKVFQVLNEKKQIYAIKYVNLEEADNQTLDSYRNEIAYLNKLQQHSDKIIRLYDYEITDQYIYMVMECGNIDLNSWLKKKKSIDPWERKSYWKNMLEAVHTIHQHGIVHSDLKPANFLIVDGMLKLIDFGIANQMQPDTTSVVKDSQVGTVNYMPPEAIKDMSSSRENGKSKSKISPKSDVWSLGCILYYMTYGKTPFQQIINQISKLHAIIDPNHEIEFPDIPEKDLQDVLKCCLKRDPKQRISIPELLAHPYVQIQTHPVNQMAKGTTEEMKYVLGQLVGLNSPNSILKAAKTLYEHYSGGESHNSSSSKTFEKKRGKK
# MAPK3 (human), sequence (P27361 whole entry, looked up): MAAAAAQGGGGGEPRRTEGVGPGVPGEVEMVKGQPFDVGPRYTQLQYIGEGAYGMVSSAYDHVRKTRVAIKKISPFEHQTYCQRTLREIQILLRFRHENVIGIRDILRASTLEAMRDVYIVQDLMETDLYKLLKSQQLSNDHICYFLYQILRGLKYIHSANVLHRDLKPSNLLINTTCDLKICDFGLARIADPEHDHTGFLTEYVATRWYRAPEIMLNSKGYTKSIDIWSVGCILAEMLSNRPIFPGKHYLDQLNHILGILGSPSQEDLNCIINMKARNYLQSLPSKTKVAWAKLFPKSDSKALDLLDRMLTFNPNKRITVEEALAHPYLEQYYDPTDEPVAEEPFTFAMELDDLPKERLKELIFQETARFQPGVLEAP
# CRK2 (P.falciparum), sequence (P61075 whole entry, looked up): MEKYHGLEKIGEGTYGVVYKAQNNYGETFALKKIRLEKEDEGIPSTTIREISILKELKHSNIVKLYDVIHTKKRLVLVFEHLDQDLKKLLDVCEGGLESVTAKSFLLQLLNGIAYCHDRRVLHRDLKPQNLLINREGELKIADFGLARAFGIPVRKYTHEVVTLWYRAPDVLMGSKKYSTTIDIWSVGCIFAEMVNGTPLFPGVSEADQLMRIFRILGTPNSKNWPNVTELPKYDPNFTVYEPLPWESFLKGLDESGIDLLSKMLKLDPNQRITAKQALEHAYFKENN
# ULK1 (human), sequence (O75385 whole entry, looked up): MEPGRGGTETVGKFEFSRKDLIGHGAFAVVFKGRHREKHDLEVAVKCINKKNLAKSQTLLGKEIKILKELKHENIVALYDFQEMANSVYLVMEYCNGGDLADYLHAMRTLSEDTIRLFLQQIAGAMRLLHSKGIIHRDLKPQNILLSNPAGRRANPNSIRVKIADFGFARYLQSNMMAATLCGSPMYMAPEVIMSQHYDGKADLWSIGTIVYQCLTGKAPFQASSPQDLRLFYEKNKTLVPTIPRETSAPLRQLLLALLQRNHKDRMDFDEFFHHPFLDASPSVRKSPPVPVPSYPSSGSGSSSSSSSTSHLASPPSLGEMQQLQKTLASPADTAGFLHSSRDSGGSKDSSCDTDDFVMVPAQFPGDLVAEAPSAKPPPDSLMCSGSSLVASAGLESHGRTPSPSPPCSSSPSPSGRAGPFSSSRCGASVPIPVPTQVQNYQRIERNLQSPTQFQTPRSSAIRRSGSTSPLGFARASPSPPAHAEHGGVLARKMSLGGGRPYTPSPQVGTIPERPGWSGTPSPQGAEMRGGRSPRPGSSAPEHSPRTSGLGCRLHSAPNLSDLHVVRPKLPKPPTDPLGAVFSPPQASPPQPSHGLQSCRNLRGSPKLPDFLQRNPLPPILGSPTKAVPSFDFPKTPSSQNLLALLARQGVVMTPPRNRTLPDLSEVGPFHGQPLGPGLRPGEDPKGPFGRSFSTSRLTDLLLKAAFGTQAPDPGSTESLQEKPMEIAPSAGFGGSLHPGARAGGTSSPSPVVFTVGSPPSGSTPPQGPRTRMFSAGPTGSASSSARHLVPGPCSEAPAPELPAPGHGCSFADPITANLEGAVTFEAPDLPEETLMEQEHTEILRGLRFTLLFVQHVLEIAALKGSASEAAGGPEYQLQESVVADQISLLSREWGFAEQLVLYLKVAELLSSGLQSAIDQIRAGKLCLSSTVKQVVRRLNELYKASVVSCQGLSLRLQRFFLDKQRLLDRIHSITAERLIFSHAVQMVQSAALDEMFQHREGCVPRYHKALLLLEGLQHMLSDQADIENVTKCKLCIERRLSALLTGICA
smiles,measurement,setting,value
COc1ccc(-c2ccc3c(N4CCOCC4)nc(N4C[C@@H](C)O[C@@H](C)C4)nc3n2)cc1CO,"kinase still bound, per cent of control",[1],100%
same,"kinase still bound, per cent of control",ACVR2A (human),100%
same,per cent of control,CDC2L2 (human),100%
same,per cent of control,CDK16 (human),100%
same,"kinase still bound, per cent of control",CHEK2 (human),100%
same,"kinase still bound, per cent of control",CIT (human),96%
same,"kinase still bound, per cent of control",CRK2 (P.falciparum),90%
same,"kinase still bound, per cent of control",DDR1 (human),85%
same,"kinase still bound, per cent of control",DYRK2 (human),63%
same,"kinase still bound, per cent of control",EPHA6 (human),100%
same,"kinase still bound, per cent of control",ERBB2 (human),94%
same,"kinase still bound, per cent of control",GRK4 (human),67%
same,"kinase still bound, per cent of control",HIPK3 (human),76%
same,"kinase still bound, per cent of control",[2],71%
same,"kinase still bound, per cent of control",KDR (human),98%
same,"kinase still bound, per cent of control",[3],94%
same,"kinase still bound, per cent of control",LYN (human),100%
same,"kinase still bound, per cent of control",MAP3K15 (human),97%
same,"kinase still bound, per cent of control",MAP4K5 (human),96%
same,"kinase still bound, per cent of control",MAPK3 (human),100%
same,per cent of control,MYLK (human),57%
same,"kinase still bound, per cent of control",MYLK2 (human),78%
same,"kinase still bound, per cent of control",MYLK3 (human),100%
same,"kinase still bound, per cent of control",MYLK4 (human),92%
same,"kinase still bound, per cent of control",NEK6 (human),96%
same,"kinase still bound, per cent of control",NLK (human),96%
same,"kinase still bound, per cent of control",[4],2.3%
same,"kinase still bound, per cent of control",[5],26%
same,"kinase still bound, per cent of control",PIM2 (human),100%
same,"kinase still bound, per cent of control",PIP4K2B (human),100%
same,"kinase still bound, per cent of control",RET (human),91%
same,"kinase still bound, per cent of control",[6],100%
same,"kinase still bound, per cent of control",RPS6KA6 KD1 (human),76%
same,"kinase still bound, per cent of control",SBK1 (human),100%
same,"kinase still bound, per cent of control",STK10 (human),92%
same,"kinase still bound, per cent of control",STK32A (human),67%
same,"kinase still bound, per cent of control",STK4 (human),100%
same,"kinase still bound, per cent of control",TRPM6 (human),50%
same,"kinase still bound, per cent of control",TTK (human),95%
same,"kinase still bound, per cent of control",ULK1 (human),79%
same,"kinase still bound, per cent of control",YES1 (human),100%
